Here are results for two compounds from US8431585B2, “Use of inhibitors of the EGFR-mediated signal transduction for the treatment of benign prostatic hyperplasia (BPH)/prostatic hypertrophy” (Boehringer Ingelheim Pharma GmbH & Co. KG, priority 2002, dated 2013).

In this assay the test system is prostate. As to the kind of experiment: Prostate-reducing activity: prostate weight of male rats after 14-15 days of once-daily oral treatment with an EGF-R-TK inhibitor. It is filed as in vivo. The method, then:
The active substance is administered once a day as a suspension through an oesophageal tube. After the test period has ended the animals are killed, their prostates are removed and weighed.

[1] abbreviates: 10 mg/kg once a day by oesophageal tube, length of treatment 15 days.
Setting [2] is: 30 mg/kg once a day by oesophageal tube, length of treatment 15 days.
Where [3] appears, read: 100 mg/kg once a day by oesophageal tube, length of treatment 15 days.
[4] abbreviates: 10 mg/kg once a day by oesophageal tube, length of treatment 14 days.
Where [5] appears, read: 30 mg/kg once a day by oesophageal tube, length of treatment 14 days.
The mark [6] stands for this setting: 100 mg/kg once a day by oesophageal tube, length of treatment 14 days.

Structures are written as SMILES. Marks after values point to notes of the source that are not given here.

As for `CN(C)CC=CC(=O)Nc1cc2c(Nc3ccc(F)c(Cl)c3)ncnc2cc1OC[C@@H]1CCCO1` [compound c, 4-[(3-chloro-4-fluorophenyl)amino]-6-{[4-(N,N-dimethylamino)-1-oxo-2-buten-1-yl]amino}-7-[(S)-(tetrahydrofuran-2-yl)methoxy]-quinazoline], the “average absolute weight (prostate)” value was 0.3854* g under setting [1], 0.2242* g under setting [2] and 0.1463* g under setting [3]. Besides, the “average relative weight [% of body weight] (prostate)” value by setting is: under setting [1], 0.1681 % of body weight; under setting [2], 0.1117* % of body weight; under setting [3], 0.0892* % of body weight. The “average relative weight [% of the brain] (prostate)” value under setting [1] was 19.67* % of the brain, the “average relative weight [% of the brain] (prostate)” value under setting [2] is reported as 11.50* % of the brain and the “average relative weight [% of the brain] (prostate)” value under setting [3] is reported as 7.63* % of the brain.

For `CN(CC=CC(=O)Nc1cc2c(Nc3ccc(F)c(Cl)c3)ncnc2cc1OC1CCCC1)C1CC1` [compound b, 4-[(3-chloro-4-fluorophenyl)amino]-6-{[4-(N-cyclopropyl-N-methyl-amino)-1-oxo-2-buten-1-yl]amino}-7-cyclopentyloxy-quinazoline], under setting [4], the “average absolute weight (prostate)” value was 0.3983* g, the “average relative weight [% of body weight] (prostate)” value was 0.1622* % of body weight and the “average relative weight [% of the brain] (prostate)” value is 20.23* % of the brain. Moreover, under setting [5], the “average absolute weight (prostate)” value was 0.3989 g, the “average relative weight [% of body weight] (prostate)” value is 0.1697 % of body weight and the “average relative weight [% of the brain] (prostate)” value is recorded as 20.71* % of the brain. Moreover, under setting [6], the “average absolute weight (prostate)” value was 0.1848* g, the “average relative weight [% of body weight] (prostate)” value is 0.1191* % of body weight and the “average relative weight [% of the brain] (prostate)” value is recorded as 10.13* % of the brain.
